Molecules are shown by their SMILES.

A word on the IC50: it is the concentration at which inhibition is half-maximal.

One assay concerns the target T1, GlyT1 (Homo sapiens, UniProt P48067).
T1 construct: Human placental choriocarcinoma cells endogenously expressing GlyT1; endogenous in cells; host or cells: JAR human placental choriocarcinoma cells
T1 sequence (P48067 1-706): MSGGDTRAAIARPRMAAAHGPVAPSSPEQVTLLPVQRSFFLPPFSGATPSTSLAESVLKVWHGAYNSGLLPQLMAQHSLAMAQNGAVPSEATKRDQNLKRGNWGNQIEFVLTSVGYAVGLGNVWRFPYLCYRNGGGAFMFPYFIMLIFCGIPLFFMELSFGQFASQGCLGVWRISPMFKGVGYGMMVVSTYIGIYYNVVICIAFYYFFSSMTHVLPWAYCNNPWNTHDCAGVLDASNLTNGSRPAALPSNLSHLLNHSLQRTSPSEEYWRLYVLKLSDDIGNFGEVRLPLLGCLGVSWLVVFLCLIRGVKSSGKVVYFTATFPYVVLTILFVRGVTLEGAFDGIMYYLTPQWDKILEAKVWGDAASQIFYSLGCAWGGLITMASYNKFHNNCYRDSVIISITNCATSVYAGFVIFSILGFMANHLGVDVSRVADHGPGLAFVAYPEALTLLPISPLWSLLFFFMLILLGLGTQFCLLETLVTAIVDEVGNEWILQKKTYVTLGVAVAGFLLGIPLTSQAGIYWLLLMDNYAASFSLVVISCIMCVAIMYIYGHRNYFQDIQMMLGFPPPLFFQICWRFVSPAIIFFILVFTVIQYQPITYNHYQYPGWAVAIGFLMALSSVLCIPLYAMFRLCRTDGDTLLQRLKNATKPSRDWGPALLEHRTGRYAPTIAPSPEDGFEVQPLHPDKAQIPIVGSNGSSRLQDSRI
The assay is described as follows: GlyT1 [14C]-glycine uptake inhibition in human placental choriocarcinoma (JAR) cells. The conditions noted are these: inhibition of specific [14C]-glycine uptake; cells endogenously expressing GlyT1; value printed in pM; read-out: Potency (IC50). Type of assay: cell-based. Here is the method: Human placental choriocarcinoma cells endogenously expressing GlyT1 can be cultured using standard conditions. Cells can then be grown at 37° C. in a humidified atmosphere 40-48 hours before the assay. Culture medium can be removed from the culture plate, and cells can be incubated with an amount of TB1A buffer with or without the compounds of the present invention for a sufficient period of time. Then an amount of [^14C]-glycine diluted with TB1A can be added to each well. After incubation the microplates can be sealed and counted. Non-specific uptake of [^14C]-glycine can be determined in the presence of unlabeled glycine. To determine potencies, a range of concentrations of the compounds of the present invention can be added to the cells, followed by the fixed concentration of [^14C]-glycine. The concentration of the present compound that inhibited half of the specific uptake of [^14C]glycine (IC50 value) can be determined from the assay data by non-linear curve fitting.
`Cn1cnc(S(=O)(=O)N2CC(C(NC(=O)c3ccc(Cl)cc3Cl)c3ccccc3)C2)c1` (single isomer, unassigned) [Compound 3b-1, 2,4-dichloro-N-((1(1-methyl-1H-imidazol-4-ylsulfonyl)azetidin-3-yl)(phenyl)methyl)benzamide]: the IC50 was 29 pM.

The assay is the same for the next values; noted with them: inhibition of specific [14C]-glycine uptake; cells endogenously expressing GlyT1; values given in μM; read-out: Potency (IC50).
On to `Cn1cnc(S(=O)(=O)N2CC(C(NC(=O)c3ccc(Cl)cc3Cl)C3CCCC3)C2)c1` (centres unmarked) [Compound 10e], for which the IC50 was found to be 1.6e+06 pM.
Still for that read-out and setting: then `Cn1cnc(S(=O)(=O)N2CC(C(NC(=O)c3ccc(F)c(F)c3)c3ccccc3)C2)c1` (centres unmarked) [Compound 9i], with 1e+06 pM.
For the molecule `Cn1cnc(S(=O)(=O)N2CC(C(NC(=O)c3ccccc3F)c3ccccc3)C2)c1` (centres unmarked) [Compound 9e], the IC50 was 1.1e+06 pM.
For the molecule `Cn1cnc(S(=O)(=O)N2CC(C(NC(=O)c3cc(Cl)cc(Cl)c3)c3ccccc3)C2)c1` (centres unmarked) [Compound 9j], the IC50 was 1.5e+06 pM.
As for `Cn1cnc(S(=O)(=O)N2CC(C(NC(=O)c3ccc(F)cc3)c3ccccc3)C2)c1` (centres unmarked) [Compound 9d], the IC50 was over 1e+07 pM.
Still for that read-out and setting: then `CCCS(=O)(=O)N1CC(C(NC(=O)c2ccc(Cl)cc2Cl)c2ccccc2)C1` (single isomer, unassigned) [Compound 3a-1, 2,4-dichloro-N-(phenyl(1-(propylsulfonyl)azetidin-3-yl)methyl)benzamide], with over 1e+07 pM.

Staying with this assay, now noted: inhibition of specific [14C]-glycine uptake; cells endogenously expressing GlyT1; values in nM; read-out: Potency (IC50).
For `CCCS(=O)(=O)N1CC(C(NC(=O)c2ccc(Cl)cc2Cl)c2ccccc2)C1` (single isomer, unassigned) [Compound 3a-2, 2,4-dichloro-N-(phenyl(1-(propylsulfonyl)azetidin-3-yl)methyl)benzamide], the IC50 amounted to 627000 pM.
Still for that read-out and setting: the result for `Cn1cnc(S(=O)(=O)N2CC(C(NC(=O)c3ccc(Cl)cc3Cl)C3CC3)C2)c1` (centres unmarked) [Compound 10d] reads 253000 pM.
The same measure, in the same setting: the result for `CC(C)CC(NC(=O)c1ccc(Cl)cc1Cl)C1CN(S(=O)(=O)c2cn(C)cn2)C1` (centres unmarked) [Compound 10f] reads 581000 pM.
The same measure, in the same setting: the result for `CCCC(NC(=O)c1ccc(Cl)cc1Cl)C1CN(S(=O)(=O)c2cn(C)cn2)C1` (centres unmarked) [Compound 10b] reads 185000 pM; that for `Cn1cnc(S(=O)(=O)N2CC(C(NC(=O)c3ccc(Cl)cc3Cl)c3ccccc3)C2)c1` (single isomer, unassigned) [Compound 3b-2, 2,4-dichloro-N-((1(1-methyl-1H-imidazol-4-ylsulfonyl)azetidin-3-yl)(phenyl)methyl)benzamide], 627000 pM; that for `Cn1cnc(S(=O)(=O)N2CC(C(NC(=O)c3ccc(Cl)cc3Cl)c3cccs3)C2)c1` (centres unmarked) [Compound 10c], 40000 pM.
Consider `Cn1cnc(S(=O)(=O)N2CC(C(NC(=O)c3c(F)cccc3F)c3ccccc3)C2)c1` (centres unmarked) [Compound 9f], for which the IC50 came out at 439000 pM.
Turning to `Cn1cnc(S(=O)(=O)N2CC(C(NC(=O)c3ccc(Cl)cc3Cl)c3ccccc3)C2)c1` (centres unmarked) [Compound 3b, 2,4-dichloro-N-((1(1-methyl-1H-imidazol-4-ylsulfonyl)azetidin-3-yl)(phenyl)methyl)benzamide], the IC50 stood at 39000 pM.
Still for that read-out and setting: the result for `Cn1cnc(S(=O)(=O)N2CC(C(NC(=O)c3cccnc3Cl)c3ccccc3)C2)c1` (centres unmarked) [Compound 9k] reads 718000 pM; that for `Cn1cnc(S(=O)(=O)N2CC(C(NC(=O)c3ccc(Cl)cc3)c3ccccc3)C2)c1` (centres unmarked) [Compound 9b], 334000 pM; that for `Cn1cnc(S(=O)(=O)N2CC(C(NC(=O)c3ccc(F)cc3F)c3ccccc3)C2)c1` (centres unmarked) [Compound 9h], 454000 pM.
Same read-out and setting: the result for `CC(C)C(NC(=O)c1ccc(Cl)cc1Cl)C1CN(S(=O)(=O)c2cn(C)cn2)C1` (centres unmarked) [Compound 10a] reads 394000 pM.
Turning to `Cn1cnc(S(=O)(=O)N2CC(C(NC(=O)c3ccccc3C(F)(F)F)c3ccccc3)C2)c1` (centres unmarked) [Compound 9g], the IC50 came out at 101000 pM.
On the same count and under the same terms, then `Cn1cnc(S(=O)(=O)N2CC(C(NC(=O)c3ccccc3C(F)(F)F)c3ccccn3)C2)c1` (centres unmarked) [Compound 10h], with 256000 pM; and `Cn1cnc(S(=O)(=O)N2CC(C(NC(=O)c3ccc(Cl)c(Cl)c3)c3ccccc3)C2)c1` (centres unmarked) [Compound 9c], with 446000 pM; and `CCCS(=O)(=O)N1CC(C(NC(=O)c2ccc(Cl)cc2Cl)c2ccccc2)C1` (centres unmarked) [Compound 3a, 2,4-dichloro-N-(phenyl(1-(propylsulfonyl)azetidin-3-yl)methyl)benzamide], with 730000 pM.
Same read-out and setting: the result for `Cn1cnc(S(=O)(=O)N2CC(C(NC(=O)c3ccccc3Cl)c3ccccn3)C2)c1` (centres unmarked) [Compound 10g] reads 356000 pM.
Still for that read-out and setting: then `Cn1cnc(S(=O)(=O)N2CC(C(NC(=O)c3ccc(Cl)cc3)c3ccccn3)C2)c1` (centres unmarked) [Compound 10i], with 940000 pM; and `Cn1cnc(S(=O)(=O)N2CC(C(NC(=O)c3ccccc3Cl)c3ccccc3)C2)c1` (centres unmarked) [Compound 9a], with 133000 pM.

The record behind these values is patent US8207155B2, “Sulfonyl-azetidin-3-yl-methylamine amide analogs as GlyTl inhibitors, methods for making same, and use of same in treating psychiatric disorders” (Vanderbilt University, priority 2009, dated 2012).
